Results on one compound are retold here after US20220296597A1, “USE OF A NEUTROPHIL ELASTASE INHIBITOR IN LUNG DISEASE” (pH Pharma Co., Ltd., priority 2019, published 2022).

Where two headings read alike, the source gives them in different places.

A short description of data set [1]: Hygroscopicity of the drug substance. Format: physicochemical. The note with it: normal storage conditions.
For data set [2] the following is noted: healthy subjects, cited from earlier work.
A short description of data set [3]: Example 2 Phase 1 single-ascending dose study in healthy subjects. Type of data set: in vivo, human. The text has this:
Following Screening, subjects received single doses of study drug and were monitored during an in-clinic period and an out-patient follow-up period. Subjects were confined to the study site for Study Days −2 through 7 to collect PK and safety assessments. Following discharge from the study site on Study Day 7, subjects returned to the study site on Study Days 14, 21, 28, and 35.

The conditions of data set [4]: non-CF BE patients, 28 days, cited from earlier work.
Data set [5] can be described thus: Solubility of the drug substance. Type of data set: physicochemical.

Take `CC1=C(C#N)[C@@H](c2ccc(C#N)cc2S(C)(=O)=O)N(C)C(=O)N1c1cccc(C(F)(F)F)c1` [Compound 1, (4S)-4-[4-cyano-2-(methylsulfonyl)phenyl]-3,6-dimethyl-2-oxo-1-[3-(trifluoromethyl)phenyl]-1,2,3,4-tetrahydropyrimidine-5-carbonitrile]: the hygroscopicity result in data set [1] is “not hygroscopic”. In addition, in data set [2] (Phase 1 studies), the “study drug-induced laboratory or ECG abnormalities” value was “No safety signals”. Moreover, in data set [2] (single and repeated doses up to 1 mg for up to 14 days), the safety and tolerability entry was “safe and well tolerated”. Also, the serious adverse events entry in data set [2] (three Phase 1 studies) was “no serious AEs (SAEs) were reported”. The subjects with headache result in data set [3] (36 received Compound 1, single doses 1 to 40 mg) is reported as “one”. In data set [3] (single doses 1 to 40 mg), the “AE rate compared with placebo” value was “somewhat lower than that in the control (placebo) subjects”; the “effects on laboratory safety evaluations (clinical chemistry and hematology)” value is “no clear effects”; the “exposure (AUC and Cmax) with dose” value is on record as “proportional increases”; the “serious AEs” value is on record as “no serious AEs”. Moreover, the safety and tolerability entry in data set [4] (1.0 mg oral IR tablet) was “generally safe and well tolerated”. Further, in data set [4] (1.0 mg oral), the “SAEs attributed to the drug” value is recorded as “no SAEs were attributed by the investigator to the drug” and the “study drug-induced laboratory parameter or ECG effects” value was “No safety signals”. For the same compound, the solubility in acetone entry in data set [5] (acetone) was “soluble”. Further, the solubility in ethanol result in data set [5] (ethanol) was “very slightly soluble”. Also, the solubility in water result in data set [5] (water) is listed as “practically insoluble”.
